These are literature values, as cited in US20210369646A1, “Composition for local tumescent anesthesia” (priority 2020, published 2021).

One series has as its target plasminogen (Homo sapiens, UniProt P00747).
The subject of series [1] is alpha 1 acid glycoprotein. The conditions noted are these: bound to alpha 1 acid glycoprotein almost entirely.

Where two headings read alike, the source gives them in different places.

Sequence of plasminogen (P00747 20-810 limits assumed): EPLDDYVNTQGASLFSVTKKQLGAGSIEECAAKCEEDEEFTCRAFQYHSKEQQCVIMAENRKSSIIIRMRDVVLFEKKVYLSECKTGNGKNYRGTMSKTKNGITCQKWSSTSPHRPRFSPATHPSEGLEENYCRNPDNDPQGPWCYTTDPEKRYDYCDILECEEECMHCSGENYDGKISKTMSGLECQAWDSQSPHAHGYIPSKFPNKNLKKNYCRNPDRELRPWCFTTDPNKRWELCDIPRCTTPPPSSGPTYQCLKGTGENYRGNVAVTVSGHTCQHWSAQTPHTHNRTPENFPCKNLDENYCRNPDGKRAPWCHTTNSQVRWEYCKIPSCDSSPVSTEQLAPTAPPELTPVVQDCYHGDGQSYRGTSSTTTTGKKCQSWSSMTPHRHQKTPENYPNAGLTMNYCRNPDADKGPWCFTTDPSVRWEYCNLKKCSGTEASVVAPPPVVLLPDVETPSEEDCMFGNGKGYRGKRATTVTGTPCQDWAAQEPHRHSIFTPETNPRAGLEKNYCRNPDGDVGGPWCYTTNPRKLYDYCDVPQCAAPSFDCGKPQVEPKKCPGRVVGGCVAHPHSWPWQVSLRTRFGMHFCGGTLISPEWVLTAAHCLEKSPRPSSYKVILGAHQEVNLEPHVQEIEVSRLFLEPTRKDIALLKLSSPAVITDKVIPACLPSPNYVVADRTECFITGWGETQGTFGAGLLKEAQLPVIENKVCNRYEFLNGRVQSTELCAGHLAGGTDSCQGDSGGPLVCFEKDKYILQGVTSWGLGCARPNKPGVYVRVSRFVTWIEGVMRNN

Take `NC[C@H]1CC[C@H](C(=O)O)CC1` [Tranexamic acid]: the middle lifetime (after the administration) is 3 h. Moreover, the “excreted through the kidneys into the urine without a conjugated form” value (by the first 24 hours) is reported as 90%. Besides, the plasmatic protein bound in the series on plasmatic protein is 3%. Besides, in the series with plasmatic protein (in words), the free protein form entry is “no free protein form”. In addition, at plasminogen, the affinity to plasminogen entry was “high affinity”.
On to `CNC[C@H](O)c1ccc(O)c(O)c1` [Epinephrine], for which, where the note is “after next 18 hours”, the “total doses excreted into the urine” value is on record as 50%. For the same compound, where the note is “by the first 6 hours”, the “total doses excreted into the urine” value is given as 50%. Under “in vivo”, the middle lifetime is 0.00556 h, the “principal metabolite: conjugated metanephrine” value is 40% and the “principal metabolite: vanillylmandelic acid” value is given as 40%. Further, for the setting “subcutaneous injection”, the “maximum concentration after a subcutaneous injection (time)” value was 20 to 40 min.
Consider `CCCN1CCCC[C@H]1C(=O)Nc1c(C)cccc1C` [Ropivacaine], for which, where the note is “in vivo”, the “excreted through the kidneys into the urine” value is listed as about 86%. Besides, the “transformed into 3-hydroxy-ropivacaine (aromatic hydroxylation)” value (liver, share of all anesthetic agent) is 99%. Also, the free protein form in series [1] was 6%.
